Results on three substances are retold here after patent US20260273131A1, “Cell graft delivered in a delivery system and use thereof in regenerative medicine” (China Medical University, priority 2022, published 2026).

Series [1] concerns chondrocyte line hiP cells. Description: Col12-TP binding to chondrocyte line hiP cells. The class given is cell-based.
Series [2] has as its system hMSCs. Description: Fluorescent peptide binding to hMSCs (confocal microscopy, imaging flow cytometry). It counts as cell-based, human. As to conditions: for binding to hMSCs: fluorescent peptide 0, 2.5, 10, 40 μM, 37° C.; for percentage of cells surrounded by FITC-conjugated BiFP (imaging flow cytometry): increasing concentration from 2.5 to 40 μM. The procedure:
FIG. 2a and FIG. 2b show the results of the analysis of hMSCs binding to BiFP. The hMSCs were labeled with Hochest 33258, and incubated with FITC-labeled BiFP for 1 h, followed by imaging flow cytometry on an Amnis Imaging Cytometer (left). Bar=10 μm. Quantification of the percentage of BiFP-bound hMSCs (right).
The FITC-labeled BiFP or rhodamine-labeled collagen XII-targeting peptide (Col12-TP) are chemically synthesized by Biomertech (USA) or ABI (USA) to identify peptide binding by confocal microscopic observation. Briefly, for FITC-BiFP or rhodamine-Col12-TP treatment, 1×10^6 hMSCs incubated with 1 μM DilC18 in 37° C. for 10 min and then incubated in final 200 μl PBS with fluorescent peptide at 0, 2.5, 10, 40 μM in 37° C. for 30 min with gently mixing every 10 min. Cells are counterstained with mounting solution containing DAPI. Peptide fluorescence was taken using an ImageXpress Micro Confocal High Content Imaging system (Molecular Devices, Sunnyvale, CA, USA).
On the technique in general: In flow cytometry, cells or beads pass a laser one at a time.

In series [3] the test system is rat OA knee joints. Briefly: Rat papain/cysteine OA model, histology and modified Mankin score 8 weeks post-transplantation. It counts as in vivo. The protocol:
(§1) FIG. 4a and FIG. 4b show the FITC-fluorescence-labeled BiFP without or with blocking peptide (FIG. 4a) and the DilC18-fluorescence-labeled rat MSCs (rMSCs) without or with delivery in BiFP (BiFP+rMSCs) (FIG. 4b) are intra-articularly injected into rat OA knee joints pre-established with papain/cysteine, respectively. The whole joint capsules are removed at 24 h post-injection, and articular surfaces of the distal femur are observed under a two-photon microscope. Representative images of second harmonic generation (SHG) signals in collagen and fluorescent signals of BiFP (FIG. 4a) and rMSCs (FIG. 4b) are shown (left). Quantification of overall fluorescence areas (right). FIG. 4c and FIG. 4d show the representative images of Hematoxylin and eosin (H&E) staining (FIG. 4c), and safranin-O/fast green staining (FIG. 4d) of distal femurs of sham-control or OA knee joints collected 8 weeks post-transplantation without or with BiFP, rMSCs, and rMSCs delivered in BiFP (BiFP+rMSCs). […] Bar=50 μm. The data are shown as mean±SD. * p<0.05, ** p<0.01 and **** p<0.0001 as determined by Student's t test (2 groups) or one-way ANOVA (≥3 groups).
Furthermore, after incubation with BiFP, MSCs are immediately injected into OA joints in a rat model, and the joints are subjected to histological examination 8 weeks post-transplantation.

Series [4] deals with corneal epithelium. Description: Rat corneal epithelial injury model induced by n-heptanol. It counts as in vivo. To be noted: one eye drop (20 μl); up to 2 weeks after injury. The procedure: FIG. 8a is the schematic flowchart of the experimental design for corneal epithelium regeneration by EGFP-expressing hMSCs without or with delivery in BiFP (BiFP+hMSCs) in the rat corneal epithelium damage model. […] Representative fluorescein-stained cornea images are shown at indicated time points (left). Quantification of the percentage of healed area was calculated using ImageJ Fiji software (right). * p<0.05, ** p<0.01 and *** p<0.001 as determined by One Way ANOVA. […] Bar=50 μm. […] Positive signal is visualized as brown color (DAB) and NC is negative control. Bar=50 μm. To further confirm the utility of BiFP as a cell carrier and expand the application of BiFP-delivered MSCs in corneal epithelial defect regeneration, a rat model of severe and corneal epithelial injury induced by repeated n-heptanol administration was utilized.

A short description of series [5]: Circular dichroism (CD) spectroscopy of secondary structure. It counts as physicochemical. To be noted: 0.2 mg/ml; PBS, pH 7.4. The procedure: (§2) The triple helix structure of BiFP, collagen, or denatured collagen peptides was measured at 0.2 mg/ml.
(§3) In the present invention, a bifunctional peptide (BiFP) is synthesized to prevent complicated chemical steps and improve efficiency. A 42-residue peptide (BiFP) with a sequence where GPOGPOGPOGPOGFOGERGPOGPOGPOGPODLQYWYPIWDTH, O is hydroxyproline, was prepared in PBS, pH 7.4 at 25° C. by Biomedical Translation Research Center (Taiwan). The triple helix structure of BiFP, collagen, or denatured collagen peptides was measured at 0.2 mg/ml, respectively. The particle size distribution of 0.2 mg/ml BiFP in PBS at 25° C. was examined by dynamic light scattering (DLS). […] Size was evaluated using dynamic light scattering: Malvern ZS90 zetasizer (Malvern Instruments Corp, Malvern, UK).

For series [6], the system named is hMSCs. Briefly: Real-time RT-PCR of chondrogenic genes in peptide-bound hMSCs. It counts as cell-based, human. To be noted: compared to Col12-TP; at 1 week.
Series [7] concerns OA cartilage. Briefly: OA-specific targeting of labeled BiFP, two-photon microscopy of rat OA joints. The class given is in vivo. To be noted: intra-articular injection, rat OA joint, 24 h post-injection. The procedure:
as §1
Since BiFP can home to OA cartilage and the chondrogenesis-inducing ability of integrin α2β1 is likely to induce MSCs to undergo chondrogenesis, the BiFP is applied in the delivery of human MSCs to the OA cartilage surface for OA regenerative medicine.

The subject of series [8] is hMSCs. Briefly: hMSC viability, Calcein-AM / ethidium homodimer staining. It counts as cell-based, human. To be noted: compared to Col12-TP; 0, 2.5, 10, 40 μM. The protocol:
(§4) The hMSCs are incubated with Col12-TP or BiFP peptide for 1 h, and stained with Calcein-AM (green) and ethidium homodimer (magenta), followed by confocal microscopic observation (left). Bar=50 μm. The quantification of viable cell percentages (right). […] The hMSCs are stained with 1,9 dimethylmethlyene blue (DMB) dye and analyzed at OD 525 nm. Results are normalized by PicoGreen dsDNA quantitation. The data are shown as mean±SD. * p<0.05, ** p<0.01, *** p<0.001 and **** p<0.0001 as determined by Student's t test (2 groups) or the ANOVA (≥3 groups).
For BiFP or Col12-TP treatment, 1×10^6 hMSCs incubated in final 200 μl PBS with peptide at 0, 2.5, 10, 40 μM in 37° C. for 30 mins with gently mixing every 10 min. Cells are stained with Calcein-AM (ThermoFisher) for live hMSCs and ethidium homodimer (Life Technologies) for dead hMSCs, respectively. Labeled hMSCs are visualized with ImageXpress Micro Confocal High Content Imaging system (Molecular Devices, Sunnyvale, CA, USA). Three independent images each group are counted live hMSCs and quantified.

For series [9], the system named is hMSCs. Briefly: WST-1 proliferation assay of peptide-bound hMSCs. The class given is cell-based, human. To be noted: compared to Col12-TP.
The test system of series [10] is hMSCs. Description: sGAG production in peptide-bound hMSCs (DMB dye). The class given is cell-based, human. As to conditions: compared to Col12-TP; at 2 weeks. The protocol: as §4
Series [11] in a line: Particle size distribution by dynamic light scattering (DLS). The class given is physicochemical. To be noted: 0.2 mg/ml in PBS at 25° C. The protocol: as §2, §3
Series [12] concerns intervertebral disc (IVD). Briefly: Rat intervertebral disc damage model induced by 20 G needle puncture. The class given is in vivo. As to conditions: rat tail. The text has this: FIG. 7a is the schematic flowchart of the experimental design for intervertebral disc (IVD) regeneration by PBS, BiFP, EGFP-expressing hMSCs without or with delivery in BiFP (BiFP+hMSCs) in the rat intervertebral disc damage model induced by 20 G needle puncture. The rats were sacrificed at the indicated time point. The rat tail tissues were subjected to X-Ray, T2-weighted MRI, Hematoxylin and eosin (H&E), Safranin O/fast green stain, immunohistochemistry and immunofluorescence analysis. […] FIG. 7d and FIG. 7e show the representative images of H&E staining and safranin-O/fast green staining of NP tissues, respectively. […] Positive signal is visualized as brown color (DAB). […] Cell nuclei were counterstained with 4′, 6-diamidino-2-phenylindole (DAPI). Bar=50 μm. […] X-ray, T2-weighted MRI and histological, histochemical and immunofluorescence analyses reveal the successful induction of IVD damage when compared PBS group with sham control group (FIG. 7b-7e).

Values joined by “and” are separate entries in the source; they are usually repeats but may differ in a detail not shown here. Equal entries are not always repeated. Where no end group is shown, it is not given here.

As for “Col12-TP: collagen XII-targeting peptide of the applicant's previous application TW202128730 (DLQYWYPIWDTH; also: rhodamine-labeled) [reference compound]”, the “binding to collagen XII-expressing hiP cells” value in series [1] is “can bind to Col12-TP”. Further, the “binding to hMSCs” value in series [2] was “cannot bind to hMSCs”. Further, the “histology (H&E, safranin-O) of OA knee joints” value in series [3] is given as “still exhibited severe OA”.

Turning to “GPOGPOGPOGPOGFOGERGPOGPOGPOGPODLQYWYPIWDTH [BiFP]”, in [4], the “corneal epithelial defect (fluorescein staining)” value was “remained markedly defective even 2 weeks after injury”. Also, the “conformation in solution by CD spectroscopy” value in series [5] is on record as “stable triple-helical conformation”. Moreover, the “expression of chondrogenic genes sox9, col2a1 and aggrecan” value in series [6] is recorded as “increased expression of chondrogenic genes”. Moreover, in series [2], the “binding to hMSCs” value is “can bind to hMSCs in a dose-dependent manner” and the “percentage of cells surrounded by FITC-conjugated BiFP (imaging flow cytometry)” value is given as “increase in the percentage of cells surrounded by FITC-conjugated BiFP”. Besides, in series [3], the “histology (H&E, safranin-O) of OA knee joints” value was “still exhibited severe OA”. In addition, the “fluorescent signal (red dots) in OA cartilage” value in series [7] is “apparent red dots are observed”. The “cell viability of hMSCs” value in [8] is given as “increase cell viability”. Moreover, the “cell proliferation of hMSCs” value in series [9] is “increase”. Moreover, the synthesis of glycosaminoglycan entry in [10] is on record as “enhance synthesis of glycosaminoglycan”. Further, the “particle size (main size) by dynamic light scattering” value in series [11] was ~ 1.914 nm and 1.914 nm. Further, the “intervertebral disc regeneration / damage (T2 MRI, safranin-O)” value in series [12] is “still exhibited severe IVD damage”.

As for “GPOGPOGPOGPOGVMGFOGPOGPOGPOGPODLQYWYPIWDTH [BiFP containing a GVMGFO sequence]”, in series [2], the “binding to hMSCs” value is listed as “can also bind to hMSCs” and the “percentage of cells surrounded by FITC-conjugated BiFP (imaging flow cytometry)” value is given as “increase in the percentage of cells surrounded by FITC-conjugated BiFP”.
